Values after ≈ are worked out from the molar mass of the structure shown. Structures can show the parent of a compound that is named as a salt.
Columns and labels:
[1] = system: Escherichia coli (ATCC25922); assay: MIC, broth microdilution (CLSI), Escherichia coli; conditions: Escherichia coli, ATCC25922, read-out: E. coli ATCC 25922 MIC, Table XIII
[2] = system: Staphylococcus aureus (ATCC25923); assay: MIC, broth microdilution (CLSI), Staphylococcus aureus ATCC25923; conditions: Staphylococcus aureus, ATCC25923, read-out: S. aureus ATCC 25923 MIC
[3] = system: E. coli RNase P RNA, M1 RNA; assay: Inhibition of bacterial RNase P activity, IC50 determination (cleavage of pATSerUG by M1 RNA); type: biochemical; conditions: NI: No inhibition

| Structure (SMILES) | MIC [1] [µg/mL] | MIC [2] [µg/mL] | IC50 [3] [µM] | IC50 ([3]; hydrochloride salt) [µM] |
| --- | --- | --- | --- | --- |
| Cl.O=C(CCc1cn(CC2CCCCC2)c2ccccc12)NC1CCNCC1 [Compound 115, 3-(1-(cyclohexylmethyl)-1H-indol-3-yl)-N-(piperidin-4-yl)propanamide hydrochloride salt] | 128 | 128 | 145 |  |
| Cl.O=C(Cc1cn(CC2CCC(F)(F)CC2)c2ccc(Br)cc12)NC1CCNCC1 [Compound 277, 2-(5-bromo-1-((4,4-difluorocyclohexyl)methyl)-1H-indol-3-yl)-N-(piperidin-4-yl)acetamide hydrochloride salt] | 129 | 65 | 229 |  |
| Cc1cccc(C(CC(=O)NC2CCNCC2)c2cn(CC3CC3)c3ccccc23)c1.Cl (stereo not drawn) [Compound 123, 3-(1-(cyclopropylmethyl)-1H-indol-3-yl)-N-(piperidin-4-yl)-3-(m-tolyl)propanamide hydrochloride salt] | 256 | 64 | 389 |  |
| N[C@H]1CC[C@H](NCCCc2cn(CC3CCCCC3)c3ccc(Br)cc23)CC1 [Compound 211, (1R,4R)-N1-(3-(5-bromo-1-(cyclohexylmethyl)-1H-indol-3-yl)propyl)cyclohexane-1,4-diamine hydrochloride salt] | 8 | 4 | 20 |  |
| N[C@H]1CC[C@H](NCCc2cn(CC3CCCCC3)c3ccc(Br)cc23)CC1 [Compound 197, (1R,4R)-N1-(2-(5-bromo-1-(cyclohexylmethyl)-1H-indol-3-yl)ethyl) cyclohexane-1,4-diamine hydrochloride salt] | 8 | 4 | 31 |  |
| CC(C)c1cccc(C(CC(=O)N[C@H]2CC[C@H](N)CC2)c2cn(CC3CCCCC3)c3ccccc23)c1.Cl (stereo partly drawn) [Compound 198, N-((1R,4R)-4-aminocyclohexyl)-3-(1-(cyclohexylmethyl)-1H-indol-3-yl)-3-(3-isopropylphenyl) propanamide hydrochloride salt] | > 512 | 17 | 12.7 |  |
| Cc1ccccc1-c1ccc2c(c1)c(CC(=O)NC1CCC(N)CC1)cn2CC1CCCCC1.Cl [Compound 235, N-((1S,4S)-4-aminocyclohexyl)-2-(1-(cyclohexylmethyl)-5-(o-tolyl)-1H-indol-3-yl)acetamide hydrochloride salt] | 126 | 8 | 12 |  |
| Cc1cccc(C(CC(=O)NC[C@H]2CC[C@H](CN)CC2)c2cn(CC3CCCCC3)c3ccccc23)c1.Cl (stereo partly drawn) [Compound 166, N-(((1S,4S)-4-(aminomethyl)cyclohexyl)methyl)-3-(1-(cyclohexylmethyl)-1H-indol-3-yl)-3-(m-tolyl)propanamide hydrochloride salt] | 275 | 9 | 7 |  |
| Cc1cccc(C(CC(=O)NCCC2CCNCC2)c2cn(Cc3ccccc3)c3ccccc23)c1.Cl (stereo not drawn) [Compound 55, 3-(1-benzyl-1H-indol-3-yl)-N-(2-(piperidin-4-yl)ethyl)-3-(m-tolyl)propanamide hydrochloride salt] | 264 | 66 |  | 172 |
| Cc1ccccc1C(CC(=O)NC1CCC(N)CC1)c1cn(CC2CCCCC2)c2ccccc12.Cl [Compound 149, N-((1S,4S)-4-aminocyclohexyl)-3-(1-(cyclohexylmethyl)-1H-indol-3-yl)-3-(o-tolyl)propanamide hydrochloride salt] | > 512 | 16 | 13 |  |
| Cc1cccc(C(CC(=O)N[C@H]2CC[C@H](N)CC2)c2cn(C(C)C3CCCCC3)c3ccccc23)c1.Cl (stereo partly drawn) [Compound 299, N-((1r,4r)-4-aminocyclohexyl)-3-(1-(1-cyclohexylethyl)-1H-indol-3-yl)-3-(m-tolyl)propanamide hydrochloride salt] | 134 | 8 | 32 |  |
| COc1ccccc1-c1ccc2c(c1)c(C(CCN[C@H]1CC[C@H](N)CC1)c1cccc(C)c1)cn2CC1CCCCC1 (stereo partly drawn) [Compound 229, (1R,4R)-N1-(3-(1-(cyclohexylmethyl)-5-(2-methoxyphenyl)-1H-indol-3-yl)-3-(m-tolyl)propyl)cyclohexane-1,4-diamine hydrochloride salt] | 20 | 3 | 5.4 |  |
| Cc1cccc(C(CC(=O)NCC2CCC(CN)CC2)c2cn(CC3CCCCC3)c3ccc(Br)cc23)c1.Cl (stereo not drawn) [Compound 203, N-((4-(aminomethyl)cyclohexyl)methyl)-3-(5-bromo-1-(cyclohexylmethyl)-1H-indol-3-yl)-3-(m-tolyl)propanamide hydrochloride salt] | > 512 | 5 | 115 |  |
| N[C@H]1CC[C@H](NC(=O)C2CCN(Cc3cn(CC4CCCCC4)c4ccc(Br)cc34)CC2)CC1 [Compound 272, N-((1R,4R)-4-aminocyclohexyl)-1-((5-bromo-1-(cyclohexylmethyl)-1H-indol-3-yl)methyl)piperidine-4-carboxamide] | 68 (≈ 128 µM) | 34 (≈ 64.2 µM) | 121 |  |
| N[C@@H](Cc1cn(CC2CCCCC2)c2ccccc12)C(=O)N[C@H]1CC[C@H](N)CC1 [Compound 264, (S)-2-amino-N-((1R,4S)-4-aminocyclohexyl)-3-(1-(cyclohexylmethyl)-1H-indol-3-yl)propanamide hydrochloride salt] | > 512 | 240 | 298 |  |
| Cc1cccc(C(CCN(C)C2CCNCC2)c2cn(CC3CCCCC3)c3ccc(Br)cc23)c1 (stereo not drawn) [Compound 291, N-(3-(5-bromo-1-(cyclohexylmethyl)-1H-indol-3-yl)-3-(m-tolyl)propyl)-N-methylpiperidin-4-amine hydrochloride salt] | 10 | 2 | 10 |  |
| Cl.O=C(CCc1cn(CC2CCC(F)(F)CC2)c2ccc(Br)cc12)NC1CCNCC1 [Compound 286, 3-(5-bromo-1-((4,4-difluorocyclohexyl)methyl)-1H-indol-3-yl)-N-(piperidin-4-yl)propanamide hydrochloride salt] | 133 | 66 | 164 |  |
| NC1CCC(NC(=O)Cc2cn(CC3CCCCC3)c3ccc(-c4ccncc4)cc23)CC1 [Compound 255, N-((1S,4S)-4-aminocyclohexyl)-2-(1-(cyclohexylmethyl)-5-(pyridin-4-yl)-1H-indol-3-yl)acetamide hydrochloride salt] | 66 | 8 | 33 |  |
| Cc1cccc(C(CC(=O)NC2CCNCC2)c2cn(CC3CCC(F)(F)CC3)c3ccccc23)c1.Cl (stereo not drawn) [Compound 282, 3-(1-((4,4-difluorocyclohexyl)methyl)-1H-indol-3-yl)-N-(piperidin-4-yl)-3-(m-tolyl)propanamide hydrochloride salt] | 136 | 34 | 71 |  |
| Cc1cccc(C(CC(=O)N2CCC(N)CC2)c2cn(CC3CCCCC3)c3ccccc23)c1.Cl (stereo not drawn) [Compound 179, 1-(4-aminopiperidin-1-yl)-3-(1-(cyclohexylmethyl)-1H-indol-3-yl)-3-(m-tolyl)propan-1-one hydrochloride salt] | 63 | 8 | 12 |  |
| Cc1cccc(C(CC(=O)NC2CCC(N)CC2)c2cn(CC3CCCCC3)c3ccc(-c4ccncc4)cc23)c1 (stereo not drawn) [Compound 188, N-(4-aminocyclohexyl)-3-(1-(cyclohexylmethyl)-5-(pyridin-4-yl)-1H-indol-3-yl)-3-(m-tolyl) propanamide hydrochloride salt] | > 512 | 5 | 5.8 |  |
| Cc1cccc(C(CC(=O)NCC2CNCCO2)c2cn(CC3CCCCC3)c3ccc(Br)cc23)c1.Cl (stereo not drawn) [Compound 281, 3-(5-bromo-1-(cyclohexylmethyl)-1H-indol-3-yl)-N-(morpholin-2-ylmethyl)-3-(m-tolyl)propanamide hydrochloride salt] | > 512 | 19 | 168 |  |
| NC1CCC(NCCCc2cn(CC3CCCCC3)c3ccc(-c4cccc(OC(F)(F)F)c4)cc23)CC1 [Compound 242, (1S,4S)-N1-(3-(1-(cyclohexylmethyl)-5-(3-(trifluoromethoxy)phenyl)-1H-indol-3-yl)propyl)cyclohexane-1,4-diamine hydrochloride salt] | 5 | 2 | 6.6 |  |
| Cl.NC1CCC(C(=O)N2CCC(c3cn(CC4CCCCC4)c4ccccc34)CC2)CC1 (stereo not drawn) [Compound 200, (4-aminocyclohexyl) (4-(1-(cyclohexylmethyl)-1H-indol-3-yl)piperidin-1-yl)methanone hydrochloride salt] | 59 | 15 | 5.9 |  |
| Cc1cccc(C(CC(=O)NCCC2CCNCC2)c2cn(CCC3CCCCC3)c3ccccc23)c1.Cl (stereo not drawn) [Compound 110, 3-(1-(2-cyclohexylethyl)-1H-indol-3-yl)-N-(2-(piperidin-4-yl)ethyl)-3-(m-tolyl)propanamide hydrochloride salt] | 64 | 4 | 5.6 |  |
| Cl.N[C@H]1CC[C@H](NC(=O)CC(c2cccc(Cl)c2)c2cn(CC3CCCCC3)c3ccccc23)CC1 (stereo partly drawn) [Compound 135, N-((1r,4r)-4-aminocyclohexyl)-3-(3-chlorophenyl)-3-(1-(cyclohexylmethyl)-1H-indol-3-yl)propanamide hydrochloride salt] | 256 | 4 | 8 |  |
| Cl.N[C@H]1CC[C@H](NC(=O)CCc2cn(CC3CCCCC3)c3ccccc23)CC1 [Compound 116, N-((1r,4r)-4-aminocyclohexyl)-3-(1-(cyclohexylmethyl)-1H-indol-3-yl)propanamide hydrochloride salt] | 128 | 128 | 158 |  |
| Cl.O=C(CCc1cn(CC2CCCCC2)c2ccccc12)NCCC1CCNCC1 [Compound 117, 3-(1-(cyclohexylmethyl)-1H-indol-3-yl)-N-(2-(piperidin-4-yl)ethyl)propanamide hydrochloride salt] | 256 | 256 | 166 |  |

From patent US20210246115A1 (Bioimics AB, priority 2017, published 2021)
